Test results taken from publication PMC8794255, “Small molecule inhibitor of Igf2bp1 represses Kras and a pro-oncogenic phenotype in cancer cells” (RNA Biology, 2021).
pIC50, pKd: −log10 of the molar value. Values joined by “and” are separate entries in the source; they are usually repeats but may differ in a detail not shown here. Equal entries are not always repeated.

How the values were obtained:
[1] = target: T1, Igf2bp1 (Homo sapiens, UniProt Q9NZI8); assay: Fluorescence polarization (FP) assay of Igf2bp1 binding to fluorescent Kras 6 RNA; conditions: FP dose response; read-out: IC50, inhibition of Igf2bp1 binding to Kras 6 RNA
T1 construct: Recombinant full-length Igf2bp1 protein was labelled with RED-tris-NTA dye; made in house
T1 sequence (Q9NZI8 whole entry): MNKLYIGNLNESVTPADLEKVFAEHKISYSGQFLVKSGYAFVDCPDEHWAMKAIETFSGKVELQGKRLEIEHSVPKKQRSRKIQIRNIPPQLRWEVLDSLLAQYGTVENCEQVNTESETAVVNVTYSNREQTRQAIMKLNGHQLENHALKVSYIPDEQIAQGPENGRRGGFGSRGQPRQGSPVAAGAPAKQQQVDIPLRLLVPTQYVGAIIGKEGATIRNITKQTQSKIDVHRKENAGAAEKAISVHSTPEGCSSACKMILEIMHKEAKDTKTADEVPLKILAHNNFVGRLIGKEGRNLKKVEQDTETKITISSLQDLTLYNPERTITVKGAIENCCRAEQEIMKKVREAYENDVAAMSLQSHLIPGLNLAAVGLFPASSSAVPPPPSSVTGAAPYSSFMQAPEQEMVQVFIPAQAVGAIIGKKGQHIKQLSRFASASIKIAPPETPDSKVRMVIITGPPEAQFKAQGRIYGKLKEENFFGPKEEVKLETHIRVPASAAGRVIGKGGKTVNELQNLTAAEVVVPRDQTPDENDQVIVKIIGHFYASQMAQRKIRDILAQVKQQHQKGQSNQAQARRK
Description: For the small-molecule screen, compounds were obtained from the collection maintained at the Grand Israel National Center for Personalized Medicine, consisting of molecules purchased from commercial vendors. Labelled RNA (10 nM) was incubated with recombinant Igf2bp1 protein (400 nM) in FAM-RNA buffer (10 mM Tris pH 8.0, 75 mM KCl, 0.5 mM EDTA, 1 mM DTT, 0.0188 U/μL RNAsin, 0.0005 μg/mL heparin, 0.0001 μg/μL tRNA, 0.01% Triton X-100, 3 mM MgCl2, 0.05% IGEPAL) at room temperature for 15 min. 7 μL of this reaction mix was aliquoted with GNF WDII (USA) into wells of 1536 well plates, with a final concentration of 20 μM compound or DMSO. The plates were spun down and read in a BMG Pherastar FS (Germany) plate reader, in FP mode with a 485/520/520 polarization filter, calibrated to 35 mP for free fluorescein with similar total intensity as experimental samples. […]
To determine the quality of our screening assay, the Z’ factor for each plate was calculated with a Z’ factor greater than 0.5 indicating a robust assay suitable for high throughput screening. Compounds that altered the overall fluorescence intensity compared to controls were considered auto florescence and excluded from further analysis. […] Any small molecule that causes a change of more than three standard deviations from the mean is determined appropriate for further investigation.

[2] = target: T1, Igf2bp1; assay: EMSA, Igf2bp1 with fluorescent Kras 6 RNA; assay type: binding; conditions: compound pre-incubated with protein; 7773 at 200 μM
Description: Recombinant Igf2bp1 protein was serially diluted (1:1) starting at an initial concentration of 10,000 nM in 0.75 μg heparin, in a total volume of 13 μL. […] 2 μL RNA was added to each well protein sample, and after a 30 min incubation at room temperature in the dark, loading dye (3 μL) (30% glycerol, 0.01% bromocresol green) was added to each mixture. For compound inhibition experiments, compounds or DMSO were incubated for 4 hours at 37 °C with the protein prior to adding the RNA. Samples were electrophoresed on native TBE polyacrylamide gels (6% acrylamide/bis-acrylamide 37.5:1, 0.5X TBE) that had been pre-run for 30 min. Gels were run at 120 V in 0.5X TBE, at 4°C in the dark. They were then carefully washed and scanned using a Typhoon FLA9500 imager using Alexa 488 laser and LPB1/2 filter. Igf2bp1-RNA complex formation was quantified using the ImageJ software. Prism6 software was used for curve fitting and KD calculations.

[3] = target: T1, Igf2bp1; assay: Microscale thermophoresis (MST), full-length Igf2bp1; conditions: full-length protein, read-out: KD of compound binding to Igf2bp1
Description: Recombinant full-length Igf2bp1 protein was labelled with RED-tris-NTA dye using a Monolith NT His-Tag Labelling Kit (NanoTemper) while RRM12, KH12 and KH34 di-domain peptides were labelled using the Protein Labelling Kit RED NHS 2nd generation (NanoTemper). Labelled proteins were spun at 15,000 g for 5 min to eliminate aggregates. All samples were 2X labelled protein mix of Igf2bp1 (200 nM) in PBST and were combined (1:1) with serial dilutions of compound or Kras6 RNA in binding buffer (10mMTris pH = 7.5, 100 mM NaCl, 0.1 mM EDTA, 0.06% IPEGAL, 0.02 μg/μL tRNA, 2 mM DTT, 0.1 μg/μL heparin) in final volume of 20 μL, room temperature for 15 min. Samples were then loaded into standard capillaries (NanoTemper) and read in the Monolith NT.115 scanner (NanoTemper) using the red filter with reading conditions of 95% LED power and 40% MST power, 5 sec fluorescence before, 30 sec MST on, 5 sec fluorescence after and 25 sec delay between samples. Results were analysed using the MO Control software (NanoTemper) for curve fitting to KD.

[4] = system: Igf2bp1-cMyc RNA interaction; set-up: method as in PMID 28846937; conditions: fluorescence polarization; cited from earlier work
[5] = set-up: method as in PMID 28846937; conditions: cited from earlier work

O=C(c1cccc(-n2cnnn2)c1)N1CCCC(Nc2ccc3c(c2)OCO3)C1 (centres unmarked) [compound 393]
pIC50 [1]: ~4.05
Inhibition of Igf2bp1 binding to Kras 6 RNA (gel shift) [2]: lower, but observable, inhibition of RNA binding
pKd [3]: < 4.00 and ~3.92

NC(=O)c1ccccc1N=Cc1ccc(Br)s1 [BTYNB]
Inhibition of Igf2bp1-cMyc RNA interaction in vitro [4]: inhibited Igf2bp1-cMyc RNA interaction in vitro
Effect on cell proliferation [5]: appears to inhibit cell proliferation
